Laboratory results: patent US20260215425A1, “NITRIFICATION INHIBITORS” (The University of Melbourne, priority 2022, published 2026)

Columns and labels:
N. europaea = assay: standard nitrification inhibition assay (NO2- production, Griess); format: cell-based, Nitrosomonas europaea; conditions: [NH4+]=3 mM, [inhibitor]=0.3 mM (10 mol %), pH 7.5, 30° C., 60 min
Protocol: Cells of N. multiformis and N. europaea were cultivated to the mid-exponential growth phase (OD600=0.1, [NO2^−] approximately 800 μM) and harvested by filtration onto 0.2 μm membrane filters (Mixed Cellulose Ester (MCE), Sigma Aldrich). The cells were washed with 2×100 mL of 0.1 M sodium phosphate buffer (NaPB), containing 0.2 mM MgSO4 at pH 7.5. The cells were washed from the filter paper by transferring it to a sterile 50 mL tube and resuspending in NaPB (15 mL), followed by 5 s of vortexing (Ratek, Australia) and 3 s of sonication (Vevor, Australia). […] Experiments were performed in triplicate.
In a deep 96-well plate (2 mL capacity), 980 μL of the bacterial inoculum (OD600=0.03) was added to the inhibitor (10 μL, 30 mmol L^−1 in Milli-Q water), the solutions were mixed thoroughly and pre-incubated in the dark for 5 minutes at 100 rpm and 30° C. (NH4)2SO4 (10 μL, 150 mM, from a prepared sterile solution containing 19.8 g L^−1 (NH4)2SO4 in Milli-Q water) was then added using a multi-channel pipette. The plate was covered with a with an O2 permeable membrane to ensure aeration (Breathe-Easy® sealing membrane, Sigma Aldrich) and incubated in a temperature-regulated rotary incubator (Ratek, Australia) in the dark for 60 minutes at 30° C. and 100 rpm. An aliquot of the reaction solution ([…]) was transferred to a 96-well spectrophotometric plate to which 50 µL of Griess reagent was added. The colour was allowed to develop for 15 minutes at room temperature, and the absorbance was measured at 540 nm. Each assay was accompanied by control treatments to determine the 0% and 100% NO2 signal. The percentage inhibition was calculated according to eqn. 1 from the NO2 production of the cells in NaPB (i) without additive (‘untreated cells’: 0% signal), (ii) with [NH4^+]=3 mM (‘uninhibited’ cells: 100% signal) and (iii) with [NH4^+]=3 mM and [inhibitor]=0.3 mM and 0.03 mM (10 mol % and 1 mol % of [NH4^+], ‘inhibited cells’). Experiments were performed in triplicate.

soil A = assay: soil incubation, NH4+ and NO3- in soil A; conditions: 21 days
Protocol: Soils used in these studies were air-dried, ground and sieved (2 mm) prior to use. Soil microcosm incubations were carried out in 250 mL polypropylene specimen containers (Sarstedt, Germany), containing 20 g oven dry-weight equivalent of soil. Microcosms were treated with half the volume of water required to meet the desired water-filled pore space (WFPS %) of 60% and pre-incubated at 25° C. for seven days to revive soil microbial activity. Following pre-incubation, the remaining volume to reach the WFPS % was applied as one of the treatment solutions: (1) fertiliser ((NH4)2SO4,) 100 mg kg^−1, (2) fertiliser+0.5 mol % 4-MPT, (3) fertiliser+2.5 mol % 4-MPT, (4) fertiliser+5 mol % 4-MPT or (5) fertiliser+5 mol % compound 1, with three replicates of each treatment per time interval (n=3). Throughout the incubation period soil microcosms were kept aerated by removing the lid for 10 minutes every 2-3 days to allow gas exchange, and moisture levels were replenished via addition of Milli-Q water as required. At the end of the desired incubation period (i.e., after 0, 3, 7, 14, and 21 days, respectively), soil microcosms were removed and destructively sampled by treating with 2 M aqueous potassium chloride solution (KCl, 100 mL) and shaking for 1 h. Soil-KCl solutions were filtered (Whatman No. 42), and the filtrates were stored at −20° C. until the conclusion of the experiment, when all KCl extracts were analysed for the concentration of soil mineral nitrogen from ammonium (NH4^+—N) and from nitrate (NO3^−—N; the conversion of NO2 to NO3^− in soils is very rapid) after appropriate dilutions using Segmented Flow Analysis (San++, Skalar, Breda, The Netherlands). Results are reported as the mean of three replicates, errors reported are standard errors of the mean. Errors associated with raw data were carried through calculations using standard error propagation protocols.
To determine the nitrification inhibitory effect of 4-MPT in vivo, soil incubations were performed by measuring concentration-time profiles for NH4^+ and NO3^− in an acidic Australian soil (soil A, pH=5.9) over 21 days. 4-MPT was tested at three different concentrations (0.5 mol %, 2.5 mol % and 5 mol % of applied fertiliser-N) and compared with the alkyl-substituted compound 1 (5 mol % of applied fertiliser-N) to confirm the requirement of the N-propargyl substitutent for inhibitory activity (FIG. 5).

C#CCn1cc(C)nn1 [Compound 4-MPT, 4-Methyl-1-(prop-2-yn-1yl)-1H-1,2,3-triazole]
% Inhibition NE (N. europaea): 77% | NH4+ loss / conversion in soil (soil A; 0.5 mol % of applied fertiliser-N): noticeably delayed NH4^+ loss within the first 15 days | NH4+ loss / conversion in soil (soil A; 2.5 mol % of applied fertiliser-N): quantitatively suppress NH4^+ conversion | NH4+ loss / conversion in soil (soil A; 5 mol % of applied fertiliser-N): quantitatively suppress NH4^+ conversion
